These results are taken from patent US20130288917A1, “Rapid High Resolution, High Throughput RNA Structure, RNA-Macromolecular Interaction, and RNA-Small Molecule Interaction Mapping” (The Board of Trustees of the Leland Stanford Junior …, priority 2010, published 2013).

“Also recorded” adds a separate entry of the source.

This data set concerns HCV IRES. As to the kind of experiment: sf-SHAPE structure mapping of the HCV IRES in the presence of miRNA. In kind it is binding, Hepatitis C virus. An excerpt: First, the intricacies (and cost) introduced by using multiple fluorophores have been eliminated by using a single fluorophore-labelled primer and multiple capillaries, rather than using multiple fluorophores sets in each capillary. We have therefore named this technique, single fluorophore SHAPE (sf-SHAPE). sf-SHAPE is a fragment analysis method that uses an internal standard to allow data from one capillary to be directly compared to data from another, with high precision. Commercial software (Peak Scanner, ABI), as well as custom-designed software (CAFA)11, which assign fragment lengths to peaks using an internal standard and integrates each peak area, are freely available.
We have designed a program entitled Fast Analysis of SHAPE Traces (FAST), which then takes the output from Peak Scanner and automatically (a) corrects for signal decay; (b) corrects for differences in signal strength among samples; and (c) assigns the determined SHAPE reactivity to the appropriate nucleotide, using a ddNTP sequencing ladder and the local southern method. […] FAST is able to generate SHAPE reactivity data from electrophoretic traces in as little as 5-10 minutes, as opposed to hours, with high experimental reproducibility (R2=0.93).
We next explored the effect of miR-122 on the HCV IRES structure. In this experiment, the HCV IRES structure was determined in the presence of miR-122 as well as a control miRNA, miR-124. The IRES structure was also determined in the presence of a mutant miR-122, in which the seed region of miR-122 was retained (NT 1-9), while the remainder of the miRNA was replaced by the end of miR-124 [miR-122(seed) with miR-124(tail)].
SHAPE performed as previously described by Mortimer & Weeks (2009) Nature protocols 4, 1413-1421; and Wilkinson et al. (2006) Nature protocols 1, 1610-1616 except: RNA purification after acylation and removal of miRNA before RT by RNA C&C (Zymoresearch); DNA purification by size exclusion (Sephadex G-50 resin); 1 pmol RNA used in sequences reactions; fragment analysis protocol (GeneScan/ROX 500 standard/50 cm capillary/POP6/voltage 15 kV/T=60° C./injection time=15 s (3100 ABI); 6-FAM labelled primers), and PeakScanner/FAST analysis. IRES folding29, (100 mM NaCl; 2.5 mM MgCl), alamar blue assay and qRT-PCR were performed as previously described30. Luciferase assay performed as described30, except co-transfection (HCV/LNA) was by lipofectamine 2000 (3.5×10^5 huh 7.5 cells/well), with translation measured at 4 hours. LNAs purchased from Exiqon (Scramble-miR/hsa-miR-122 kd2). Sequence logo: RNA graphics were drawn using RNA Viz. P-values (two-tailed unpaired t-test) calculated by InStat 3 (Graphpad).

Consider “miR-122: liver-expressed miRNA, UGGAGUGUGA CAAUGGUGUUUG (UGGAGUGUGACAAUGGUGUUUG)”, for which, for the setting “HCV IRES with versus without miRNA”, the “effect on IRES structure (SHAPE reactivity)” value was “induced a number of changes”. Also, the “binding at NTs 32-37” value (outside the complementary seed region) is listed as “results in binding”. Where the note is “seed site”, the “binding to the S2 target of the IRES (NT 38-42)” value is listed as “bound”. Besides, the “flexibility of the S2 target site” value (upon addition of miRNA, HCV nucleotides 32-42) was “significant reduction in flexibility”. Moreover, under “upon addition of miRNA, nucleotides 335, 336, 351”, the “flexibility / reactivity of domain IV (AUG start site)” value is reported as “becomes more flexible; also recorded: significantly increased flexibility”.
